Laboratory results reported in PMC8201479, “Trisubstituted Pyrrolinones as Small-Molecule Inhibitors Disrupting the Protein–RNA Interaction of LIN28 and Let-7” (ACS Medicinal Chemistry Letters, 2021).
Where two headings read alike, the source gives them in different places.

Assays:
LIN28–let-7 interaction [1] = target: T1, LIN28–let-7 interaction (Homo sapiens, UniProt Q9H9Z2); assay: Fluorescence polarization (FP) assay, LIN28A (residues 16–187) and FAM-labeled preE-let-7f-1; type: binding
T1 construct: Purified LIN28A (residues 16–187) was incubated at a concentration of 200 nM; His-tag (cleaved yes); made in house; host or cells: Escherichia coli BL21(DE3)
T1 sequence (Q9H9Z2 16-187): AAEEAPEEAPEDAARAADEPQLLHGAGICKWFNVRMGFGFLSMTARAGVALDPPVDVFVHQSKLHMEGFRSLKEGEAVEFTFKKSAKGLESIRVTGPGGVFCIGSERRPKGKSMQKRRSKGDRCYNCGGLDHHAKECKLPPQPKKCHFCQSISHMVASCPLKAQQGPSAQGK
Method: Protein expression and purification.
19 vector and overexpressed in Escherichia coli BL21(DE3). The culture was incubated at 37 °C until
the absorbance at 600 nm (OD600) reached 0.5–0.7. IPTG was added to a final concentration of
300 µM, and overnight induction was performed at 18 °C. Cells were harvested by centrifugation.
The bacterial pellet was resuspended in lysis buffer (50 mM NaH2PO4, pH 7.5, 300 mM NaCl,
0.1 mM PMSF) and lysed using a Microfluidizer (Microfluidics) . A fresh portion of 0.1 mM PMSF
and Triton X-100 (1% final concentration) were added. The lysate was cleared by ultra centrifugation
at 30000 xg and 4 °C for 1 h. The protein purification was performed using immobilized nickel
300 mM NaCl and 5 % glycerol. Gradient elution was performed with a maximum of 0.5 M imidazole.
Subsequently, the affinity tag was cleaved using His6 -TEV-protease and the protease and unspecific
binders were eliminated by a second nickel affinity chromatography. After protein concentration
LIN28A containing fractions were concentrated and applied to a High Load Superdex 75 pg 16/600
column (GE Healthcare) with gel-filtration buffer (30 mM NaH2PO4, pH 7.5, 50 mM NaCl, 5%
glycerol, 2 mM β-ME). The purified protein was concentrated and stored at -80 °C until further
Fluorescence polarization. The fluorescence polarization assay was performed in black low volume
IC50 measurements were performed with three technical
minutes with compound concentrations ranging from 0.3 nM to 100 µM in FP assay buffer (20 mM
Tris, pH 7, 100 mM NaCl, 5 mM MgCl2, 2 mM glutathione (reduced), 0.1 % NP-40). Subsequently,
FAM-labeled preE-let-7f-1 (mus musculus) ([…]-
FAM, synthesized by IDT) was added to a final concentration of 2 nM. Fluorescence polarization
was detected after incubation at room temperature using a TECAN Spark plate reader. Half maximal
inhibitory concentrations (IC50) were determined using GraphPad Prism 7. […]

LIN28–let-7 interaction [2] = target: T1, LIN28–let-7 interaction; assay: as above; type: binding; details: for IC50: Table 1, quadruplicate, eight concentrations, read-out: IC50, LIN28–let-7 inhibitory activity; for FP, Average (mP): raw data Table S3, four replicates
[3] = text and figures, C-labels = library sample, PH-labels = in-house resynthesized, read-out: IC50 in the FP assay
[4] = starting from a maximum concentration of 60 μM
[5] = starting from 30 μM, extrapolated based on the observed IC50 curves
[6] = starting from a maximum of 60 μM, extrapolated based on the observed IC50 curves

| SMILES | FP, Average (mP) (LIN28–let-7 interaction [2]; 0.041 μM compound) | FP, Average (mP) (LIN28–let-7 interaction [2]; 0.123 μM compound) | FP, Average (mP) (LIN28–let-7 interaction [2]; 0.368 μM compound) | FP, Average (mP) (LIN28–let-7 interaction [2]; 1.103 μM compound) | FP, Average (mP) (LIN28–let-7 interaction [2]; 3.125 μM compound) | FP, Average (mP) (LIN28–let-7 interaction [2]; 9.375 μM compound) | FP, Average (mP) (LIN28–let-7 interaction [2]; 29.688 μM compound) | FP, Average (mP) (LIN28–let-7 interaction [2]; 59.375 μM compound) | IC50 (LIN28–let-7 interaction [2]; [5]) [µM] | also measured |
| --- | --- | --- | --- | --- | --- | --- | --- | --- | --- | --- |
| O=C(C1=C(O)C(=O)N(c2ccc(O)c(C(=O)O)c2)C1c1ccc(-c2nccs2)cc1)c1ccccc1 (stereo not shown) [C879/PH-34] | 117.25 | 110.90 | 115.50 | 113.50 | 89.73 | 88.63 | 73.03 | 53.40 |  | IC50 (LIN28–let-7 interaction [1]; [3]): < 30 µM; IC50 (LIN28–let-7 interaction [2]; [4]): 12 µM |
| O=C(O)c1ccc(C2C(C(=O)c3ccccc3)=C(O)C(=O)N2c2ccc(O)c(C(=O)O)c2)cc1 (stereo not shown) [C880/PH-39] | 111.50 | 113.50 | 115.75 | 112.00 | 91.63 | 55.98 | 41.63 | 45.53 |  | IC50 (LIN28–let-7 interaction [1]; [3]): < 30 µM; IC50 (LIN28–let-7 interaction [2]; [4]): 6 µM |
| O=C(O)c1ccc(C2C(C(=O)c3ccccc3)=C(O)C(=O)N2c2cccc(C(=O)O)c2)cc1 (stereo not shown) [C881] |  |  |  |  |  |  |  |  | > 100 |  |
| O=C(O)c1ccc(C2C(C(=O)c3ccccc3)=C(O)C(=O)N2c2ccc(C(=O)O)cc2)cc1 (stereo not shown) [C882] |  |  |  |  |  |  |  |  | > 100 |  |
| COc1ccc(C(=O)C2=C(O)C(=O)N(c3cccc(C(=O)O)c3)C2c2ccc([N+](=O)[O-])cc2)cc1 (stereo not shown) [C883] |  |  |  |  |  |  |  |  | > 100 |  |
| COc1ccc(C(=O)C2=C(O)C(=O)N(c3ccc(C(=O)O)cc3)C2c2ccc([N+](=O)[O-])cc2)cc1 (stereo not shown) [C884] |  |  |  |  |  |  |  |  | > 100 |  |
| COc1ccc(C(=O)C2=C(O)C(=O)N(c3ccc(O)c(C(=O)O)c3)C2c2ccc(C(=O)O)cc2)cc1 (stereo not shown) [C885] |  |  |  |  |  |  |  |  | 30 to 40 |  |
| COc1ccc(C(=O)C2=C(O)C(=O)N(c3cccc(C(=O)O)c3)C2c2ccc(C(=O)O)cc2)cc1 (stereo not shown) [C886] |  |  |  |  |  |  |  |  | > 100 |  |
| COc1ccc(C(=O)C2=C(O)C(=O)N(c3ccc(C(=O)O)cc3)C2c2ccc(C(=O)O)cc2)cc1 (stereo not shown) [C887] |  |  |  |  |  |  |  |  | > 100 |  |
| COc1ccc(C(=O)C2=C(O)C(=O)N(c3cccc(-c4nnn[nH]4)c3)C2c2ccc(C(=O)O)cc2)cc1 (stereo not shown) [C888] |  |  |  |  |  |  |  |  | > 100 |  |
| O=C(O)c1cccc(N2C(=O)C(O)=C(C(=O)c3ccc(Br)cc3)C2c2ccc([N+](=O)[O-])cc2)c1 (stereo not shown) [C891] |  |  |  |  |  |  |  |  | > 100 |  |
| O=C(C1=C(O)C(=O)N(c2cccc(-c3nnn[nH]3)c2)C1c1ccc([N+](=O)[O-])cc1)c1ccc(Br)cc1 (stereo not shown) [C892] |  |  |  |  |  |  |  |  | > 100 |  |
| O=C(O)c1ccc(C2C(C(=O)c3ccc(Br)cc3)=C(O)C(=O)N2c2ccc(O)c(C(=O)O)c2)cc1 (stereo not shown) [C893] |  |  |  |  |  |  |  |  | 30 to 40 |  |
| O=C(O)c1ccc(C2C(C(=O)c3ccc(Br)cc3)=C(O)C(=O)N2c2cccc(C(=O)O)c2)cc1 (stereo not shown) [C894] |  |  |  |  |  |  |  |  | > 100 |  |
| O=C(O)c1ccc(C2C(C(=O)c3ccc(Br)cc3)=C(O)C(=O)N2c2ccc(C(=O)O)cc2)cc1 (stereo not shown) [C895] |  |  |  |  |  |  |  |  | > 100 |  |
| O=C(O)c1ccc(C2C(C(=O)c3ccc(Br)cc3)=C(O)C(=O)N2c2cccc(-c3nnn[nH]3)c2)cc1 (stereo not shown) [C896] |  |  |  |  |  |  |  |  | > 100 |  |
| O=C(O)c1cccc(N2C(=O)C(O)=C(C(=O)c3ccccc3)C2c2ccc(-c3nccs3)cc2)c1 (stereo not shown) [C897] |  |  |  |  |  |  |  |  | 30 to 40 |  |
| O=C(C1=C(O)C(=O)N(c2cccc(-c3nnn[nH]3)c2)C1c1ccc(-c2nccs2)cc1)c1ccccc1 (stereo not shown) [C898] |  |  |  |  |  |  |  |  | > 100 |  |
| O=C(O)c1ccc(N2C(=O)C(O)=C(C(=O)c3ccc(Br)cc3)C2c2ccc(-c3nccs3)cc2)cc1 (stereo not shown) [C899] |  |  |  |  |  |  |  |  |  | IC50 (LIN28–let-7 interaction [1]): > 100 µM |
| COc1ccc(C(=O)C2=C(O)C(=O)N(c3cccc(C(=O)O)c3)C2c2ccc(-c3nccs3)cc2)cc1 (stereo not shown) [C900] |  |  |  |  |  |  |  |  | > 100 |  |
| COc1ccc(C(=O)C2=C(O)C(=O)N(c3cccc(-c4nnn[nH]4)c3)C2c2ccc(-c3nccs3)cc2)cc1 (stereo not shown) [C901] |  |  |  |  |  |  |  |  | > 100 |  |
| O=C(C1=C(O)C(=O)N(c2ccc(C(=O)O)c(O)c2)C1c1ccc(-c2nccs2)cc1)c1ccc(Br)cc1 (stereo not shown) [PH-30] | 110.75 | 116.25 | 115.75 | 116.25 | 107.00 | 111.25 | 107.25 | 98.68 |  | IC50 (LIN28–let-7 interaction [2]; [6]): > 100 µM |
| O=C(C1=C(O)C(=O)N(c2ccc(O)cc2)C1c1ccc(-c2nccs2)cc1)c1ccc(Br)cc1 (stereo not shown) [PH-35] | 115.25 | 112.75 | 116.50 | 109.50 | 110.25 | 104.00 | 104.65 | 93.48 |  | IC50 (LIN28–let-7 interaction [2]; [6]): > 100 µM |
| O=C(O)c1ccc(C2C(C(=O)c3ccccc3)=C(O)C(=O)N2c2ccc(O)cc2)cc1 (stereo not shown) [PH-36] | 115.00 | 116.25 | 113.50 | 112.00 | 104.83 | 108.50 | 96.03 | 79.35 |  | activity in the FP assay (LIN28–let-7 interaction [1]): inactive; IC50 (LIN28–let-7 interaction [2]; [6]): > 100 µM |
| O=C(C1=C(O)C(=O)N(c2ccc(O)c([N+](=O)[O-])c2)C1c1ccc(-c2nccs2)cc1)c1ccccc1 (stereo not shown) [PH-37] | 113.25 | 106.48 | 115.75 | 111.25 | 111.50 | 95.58 | 86.53 | 71.50 |  | IC50 (LIN28–let-7 interaction [2]; [4]): 41 µM |
| O=C(O)c1ccc(C2C(C(=O)c3ccccc3)=C(O)C(=O)N2c2ccc(C(=O)O)c(O)c2)cc1 (stereo not shown) [PH-38] | 113.00 | 113.25 | 117.75 | 113.25 | 101.00 | 86.53 | 50.30 | 49.00 |  | IC50 (LIN28–let-7 interaction [2]; [4]): 16 µM |
| O=C(C1=C(O)C(=O)N(c2ccc(O)c(C(=O)O)c2)C1c1ccc(-c2nccs2)cc1)c1ccco1 (stereo not shown) [PH-43] | 110.50 | 109.50 | 109.75 | 98.88 | 79.00 | 55.18 | 37.25 | 33.68 |  | IC50 (LIN28–let-7 interaction [2]; [4]): 5 µM |
| COc1ccc(C(=O)C2=C(O)C(=O)N(c3ccc(O)c(C(=O)O)c3)C2c2ccc(-c3nccs3)cc2)cc1OC (stereo not shown) [PH-44] | 96.70 | 118.00 | 115.00 | 107.75 | 92.95 | 82.98 | 63.53 | 54.00 |  | IC50 (LIN28–let-7 interaction [2]; [4]): 12 µM |
